Reference: US11369565B2, “Amino-pyrimidine skeletal muscle modulators” (Cytokinetics, Inc., priority 2010, dated 2022)

Test system: rabbit skeletal myofibrils (approximately 90% fast fibers)
Assay: Activation of fast skeletal myofibrils (PUMA coupled-enzyme ATPase assay at pCa25)
Format: biochemical
Conditions: concentration at which the compound increased the enzymatic activity by 40%; calcium at pCa25; PM12 buffer pH 6.8
Summary of the method: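 Detergent-washed rabbit psoas myofibrils tested at calcium giving 25% of maximal rate (pCa25). ATPase activity tracked by pyruvate kinase/lactate dehydrogenase coupling, NADH oxidation read as absorbance at 340 nm, in PM12 buffer (12 mM Pipes, 2 mM MgCl2, 1 mM DTT, pH 6.8).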

| Structure (SMILES) | Mean AC1.4 |
| --- | --- |
| NC(=O)c1cccc(-c2cnc(NCC3(c4ccccn4)CCC3)nc2)c1 [3-(2-{[(2 pyridylcyclobutyl)methyl]amino}pyrimidin-5-yl)benzamide] | B (B=1-10 uM) |
| CC(C)(Nc1ncc(-c2cc(C(N)=O)ccc2F)cn1)c1ncccc1C(F)F [3-[2-({1-[3-(difluoromethyl)(2-pyridyl)]-isopropyl)amino)pyrimidin-5-yl]-4-fluorobenzamide] | B (B=1-10 uM) |
| CC(C)(Nc1ncc(-c2cc(C(N)=O)ccc2F)cn1)c1cccc(OC(F)F)n1 [3-[2-({1-[6-(difitioromethoxy)(2-pyridyl)]-isopropyl}amino)pyrimidin-5-yl]-4-fluorobenzamide] | A (A=<1 uM) |
| CC(C)(Nc1ncc(-c2cccc(C(N)=O)c2)cn1)c1ccccc1S(C)(=O)=O [3-[2-({1-methyl-1-[2-(methylsulfonyl)phenyl]ethyl}amino)pyrimidin-5-yl]benzamide] | D (D=>20 uM) |
| CC(C)(c1ncccc1S(C)(=O)=O)N(O)c1ncc(-c2cccc(C(N)=O)c2)cn1 [3-[2-({1-methyl-1-[3-(methylsulfonyl)(2-pyridyl)]ethyl}(hydroxyamino))pyrimidin-5-yl]benzamide] | D (D=>20 uM) |
| CC(C)(Nc1ncc(-c2cccc(C(N)=O)c2)cn1)c1ccc(S(C)(=O)=O)cc1 [3-[2-({1-methyl-1-[4-(methylsulfonyl)phenyl]ethyl}amino)pyrimidin-5-yl)benzamide] | D (D=>20 uM) |
| CC(C)(Nc1ncc(-c2cc(C#N)ccc2F)cn1)c1ncccc1C(F)F [3-[2-({1[3-(difluoromethyl)(2-pyridyl)]-isopropyl}amino)pyrimidin-5-yl]-4-fluorobenzenecarbonitrile] | B (B=1-10 uM) |
| NC(=O)c1ccc(F)c(-c2cnc(NCC3(c4ncccc4Cl)CC(F)(F)C3)nc2)c1 [3-[2-({[1-(3-chloro(2-pyridyl))-3,3-difluorocyclobutyl]methyl}amino)pyrimidin-5-yl]-4-fluorobenzamide] | A (A=<1 uM) |
| NC(=O)c1cccc(-c2cnc(NC[C@]3(c4ncccc4F)C[C@H](F)C3)nc2)c1O [3-[2-({[3-fluoro-1-(3-fluoro(2-pyridyl))cyclobutyl]methyl)amino)pyrimidin-5-yl]-2-hydroxybenzamide] | A (A=<1 uM) |
| O=C(O)c1cccc(-c2cnc(NC[C@]3(c4ncccc4F)C[C@H](F)C3)nc2O)c1 [3-[2-({[3-fluoro-1-(3-fluoro(2-pyridyl))cyclobutyl]methyl}amino)-4-hydroxypyrimidin-5-yl] benzoic acid] | D (D=>20 uM) |
| NC(=O)c1cccc(-c2cnc(NC[C@]3(c4ncccc4F)C[C@H](F)C3)nc2O)c1 [3-[2-({[3-fluoro-1-(3-fluoro(2-pyridyl))cyclobutyl]methyl}amino)-4-hydroxypyrimidin-5-yl]benzamide] | B (B=1-10 uM) |
| COc1nc(NC[C@]2(c3ncccc3F)C[C@H](F)C2)ncc1-c1cccc(C(N)=O)c1 [3-[2-({[3-fluoro-1-(3-fluoro(2-pyridyl))cyclobutyl]methyl}amino)-4-methoxypyrimidin-5-yl]benzamide] | A (A=<1 uM) |
| O=C(O)c1ccc(O)c(-c2cnc(NC[C@]3(c4ncccc4F)C[C@H](F)C3)nc2)c1 [3-[2-({[3-fluoro-1-(3-fluoro(2-pyridyl))cyclobutyl]methyl}amino)pyrimidin-5-yl]-4-hydroxybenzoic acid] | A (A=<1 uM) |
| NC(=O)c1cccc(-c2cnc(NCC3(c4ncccc4F)CC(F)C3)nc2)c1 (stereo not drawn) [3-[2-({[3-fluoro-1-(3-fluoro(2-pyridyl))cyclobutyl]methyl}amino)pyrimidin-5-yl]benzamide] | A (A=<1 uM) |
| Cc1ccc(F)c([C@]2(CNc3ncc(-c4cccc(C(N)=O)c4)cn3)C[C@@H](F)C2)n1 [3-[2-({[3-fluoro-1-(3-fluoro-6-methyl(2-pyridyl))cyclobutyl]methyl}amino)pyrimidin-5-yl]benzamide] | A (A=<1 uM) |
| N#Cc1ccc(F)c(-c2cnc(NCC3(c4ncccc4Cl)CCC3)nc2)c1 [3-[2-({[(3-chloro(2-pyridyl))cyclobutyl]methyl}amino)pyrimidin-5-yl]-4-fluorobenzenecarbonitrile] | A (A=<1 uM) |
| NC(=O)c1cccc(-c2cnc(NCC3(c4ncccc4Cl)CCC3)nc2)c1 [3-[2-({[(3-chloro-2-pyridyl)cyclobutyl]methyl}amino)pyrimidin-5-yl]benzamide] | A (A=<1 uM) |
| N#Cc1cccc(-c2cnc(NCC3(c4ncccc4Cl)CCC3)nc2)c1 [3-[2-({[(3-chloro-2-pyridyl)cyclobutyl]methyl}amino)pyrimidin-5-yl]benzenecarbonitrile] | A (A=<1 uM) |
| NC(=O)c1ccc(O)c(-c2cnc(NCC3(c4ncccc4F)CCC3)nc2)c1 [3-[2-({[(3-fluoro(2-pyridyl))cyclobutyl]methyl}amino)pyrimidin-5-yl]-4-hydroxybenzamide] | A (A=<1 uM) |
| CC(C)(C)OC(=O)NCCC(=O)NCc1cnn(-c2cnc(NC(C)(C)c3ncccc3Cl)nc2)c1 [3-[(tert-butoxy)carbonylamino]-N-{[1-(2-{[1-(3-chloro(2-pyridyl))-isopropyl]amino}pyrimidin-5-yl)pyrazol-4-yl)]methyl}propanamide] | D (D=>20 uM) |
| CC(C)(CNc1ncc(-c2ccc(C(N)=O)cc2)cn1)c1ccc(F)cc1 [4-(2-{[2-(4-fluorophenyl)-2-methylpropyl]amino}pyrimidin-5-yl)benzamide] | B (B=1-10 uM) |
| Cc1nc(NC[C@]2(c3ncccc3F)C[C@H](F)C2)ncc1-c1ccc(C(N)=O)cc1 [4-[2-({[3-fluoro-1-(3-fluoro(2-pyridyl))cyclobutyl]methyl}amino)-4-methylpyrimidin-5-yl]benzamide] | D (D=>20 uM) |

Other lines, results leading:

| Mean AC1.4 | Structure (SMILES) |
| --- | --- |
| A (A=<1 uM) | CC(C)(Nc1ncc(-c2cccc(C(N)=O)c2)cn1)c1cccc(OC(F)F)n1 [3-[2-({1-[6-(difluoromethoxy)(2-pyridyl)]-isopropyl}amino)pyrimidin-5-yl]benzamide] |
| D (D=>20 uM) | CC(C)(Nc1ncc(-c2cccc(C(N)=O)c2)cn1)c1ncccc1S(C)(=O)=O [3-[2-({1-methyl-1-[3-(methylsulfonyl)(2-pyridyl)]ethyl}amino)pyrimidin-5-yl]benzamide] |
| B (B=1-10 uM) | Cc1nc(NC[C@]2(c3ncccc3F)C[C@H](F)C2)ncc1-c1cccc(C(N)=O)c1 [3-[2-({[3-fluoro-1-(3-fluoro(2-pyridyl))cyclobutyl]methyl}amino)-4-methylpyrimidin-5-yl]benzamide] |
| A (A=<1 uM) | NC(=O)c1ccc(O)c(-c2cnc(NC[C@]3(c4ncccc4F)C[C@H](F)C3)nc2)c1 [3-[2-({[3-fluoro-1-(3-fluoro(2-pyridyl))cyclobutyl]methyl}amino)pyrimidin-5-yl]-4-hydroxybenzamide] |
| C (C=10-20 uM) | Oc1ncccc1-c1cnc(NC[C@]2(c3ncccc3F)C[C@H](F)C2)nc1 [3-[2-({[3-fluoro-1-(3-fluoro(2-pyridyl))cyclobutyl]methyl}amino)pyrimidin-5-yl]pyridin-2-ol] |
| A (A=<1 uM) | NC(=O)c1ccc(F)c(-c2cnc(NCC3(c4ncccc4Cl)CCC3)nc2)c1 [3-[2-({[(3-chloro(2-pyridyl))cyclobutyl]methyl}amino)pyrimidin-5-yl]-4-fluorobenzamide] |
| A (A=<1 uM) | NC(=O)c1cccc(-c2cnc(NCC3(c4ncccc4F)CCC3)nc2)c1 [3-[2-({[(3-fluoro-2-pyridyl)cyclobutyl]methyl}amino)pyrimidin-5-yl]benzamide] |
| B (B=1-10 uM) | Nc1ncc(-c2cnc(NC[C@]3(c4ncccc4F)C[C@H](F)C3)nc2)[nH]c1=O [3-amino-6-[2-({[3-fluoro-1-(3-fluoro(2-pyridyl))cyclobutyl]methyl}amino)pyrimidin-5-yl] hydropyrazin-2-one] |
| B (B=1-10 uM) | CC(C)(Nc1ncc(-n2cc(CNC(=O)CCN)cn2)cn1)c1ncccc1Cl [3-amino-N-{[1-(2-{[1-(3-chloro(2-pyridyl))-isopropyl]amino}pyrimidin-5-yl)pyrazol-4-yl]methyl}propanamide] |
| D (D=>20 uM) | CC(C)(C)Nc1ncc(-c2cccc(C(N)=O)c2)cn1 [3-{2-[(tert-butyl)amino]pyrimidin-5-yl} benzamide] |
| C (C=10-20 uM) | CC(C)(Nc1ncc(-c2csc(C(N)=O)n2)cn1)c1ncccc1Cl [4-(2-{[1-(3-chloro(2-pyridyl))-isopropyl]amino}pyrimidin-5-yl)-1,3-thiazole-2-carboxamide] |
| B (B=1-10 uM) | CC(C)(Nc1ncc(-c2ccnc(C(N)=O)c2)cn1)c1ncccc1Cl [4-(2-{[1-(3-chloro(2-pyridyl))-isopropyl]amino}pyrimidin-5-yl)pyridine-2-carboxamide] |
| B (B=1-10 uM) | CC(C)(Nc1ncc(-c2csc(C(N)=O)c2)cn1)c1ncccc1Cl [4-(2-{[1-(3-chloro(2-pyridyl))-isopropyl]amino}pyrimidin-5-yl)thiophene-2-carboxamide] |
| D (D=>20 uM) | N#Cc1cc(-c2cnc(NC3(c4ncccc4F)CCC3)nc2)ccn1 [4-(2-{[(3-fluoro-2-pyridyl)cyclobutyl]amino}pyrimidin-5-yl)pyridine-2-carbonitrile] |
| B (B=1-10 uM) | NC(=O)c1cc(-c2cnc(NC3(c4ncccc4F)CCC3)nc2)ccn1 [4-(2-{[(3-fluoro-2-pyridyl)cyclobutyl]amino}pyrimidin-5-yl)pyridine-2-carboxamide] |
| C (C=10-20 uM) | N#Cc1cc(-c2cnc(NC3(c4ccc(F)cc4)CCC3)nc2)ccn1 [4-(2-{[(4-fluorophenyl)cyclobutyl]amino}pyrimidin-5-yl)pyridine-2-carbonitrile] |
| B (B=1-10 uM) | NC(=O)c1cc(-c2cnc(NC3(c4ccc(F)cc4)CCC3)nc2)ccn1 [4-(2-{[(4-fluorophenyl)cyclobutyl]amino}pyrimidin-5-yl)pyridine-2-carboxamide] |
